Assay results reported in patent publication US20260166029A1, “METHODS AND SYSTEMS FOR TREATING DISEASE USING AN ATR/CHK1 SIGNALING PATHWAY INHIBITOR” (Acrivon Therapeutics, Inc., priority 2022, published 2026).

Key:
[1] = test system: OVCAR3-P and OVCAR3-R cells; assay: Global pan-/phospho-proteomic analysis and western blot after gemcitabine (Example 12); format: cell-based, human; details: gemcitabine 10 nM for 24 hours vs DMSO control
Experimental: To determine whether treatment with gemcitabine can alter the abundance of biomarkers associated with a Response-Predictive Signature, a global pan-proteomic and phosphor-proteomic analysis was performed to compare treatment with low dose gemcitabine (10 nM for 24 hours) to DMSO control in both OVCAR3-P and OVCAR3-R cells.

HeLa = assay: Cell Titer Glo 2.0 relative cell viability, 72 h (Example 10); format: cell-based; details: Homo sapiens, HeLa cell line, read-out: Abs IC50
Experimental: (§1) The present Example provides experimental evidence that cell lines predicted to be sensitive to a Chk1 inhibitor (e.g., prexasertib, are also sensitive to Wee1 inhibitors (e.g., adavosertib (AZD1775, MK1775) and azenosertib (Zn-C3)). Cell lines were treated with increasing doses of either prexasertib, adavosertib, or azenosertib, and relative cell viability against a DMSO control was assessed 72 h after drug treatment using Cell Titer Glo 2.0 (Promega) and a SpectraMax microplate reader. The results are shown in FIGS. 19A-19C. Error bars represent standard deviations from quadruplicate samples.

OVCAR3 = assay: as above; format: cell-based; details: Homo sapiens, OVCAR-3, OVCAR3 cell line, read-out: Abs IC50
Experimental: as §1

BxPC3 = assay: as above; format: cell-based; details: Homo sapiens, BXPC-3, BxPC3 cell line, read-out: Abs IC50
Experimental: as §1

PC3 = assay: as above; format: cell-based; details: Homo sapiens, PC-3, PC3 cell line, read-out: Abs IC50
Experimental: as §1

A2780 = assay: as above; format: cell-based; details: Homo sapiens, A2780 cell line, read-out: Abs IC50
Experimental: as §1

A375 = assay: as above; format: cell-based; details: Homo sapiens, A-375, A375 cell line, read-out: Abs IC50
Experimental: as §1

T47D = assay: as above; format: cell-based; details: Homo sapiens, T47D cell line, read-out: Abs IC50
Experimental: as §1

Compound | Ser296 phosphorylated Chk1 (BM1) abundance [1] | abundance of total cyclin E1 (BM3) [1] | IC50 (HeLa) | IC50 (OVCAR3) | IC50 (BxPC3) | IC50 (PC3) | IC50 (A2780) | IC50 (A375) | IC50 (T47D)
Nc1ccn([C@@H]2O[C@H](CO)[C@@H](O)C2(F)F)c(=O)n1 [gemcitabine, 2′,2′-difluoro 2′-deoxycytidine] | significant increase | significant increase | – | – | – | – | – | – | –
C=CCn1c(=O)c2cnc(Nc3ccc(N4CCN(C)CC4)cc3)nc2n1-c1cccc(C(C)(C)O)n1 [Adavosertib] | – | – | 328 nM | 237 nM | 360 nM | > 10000 nM | 653 nM | 170 nM | > 10000 nM
C=CCn1c(=O)c2cnc(Nc3ccc(N4CCN(C)CC4)cc3)nc2n1-c1ccc2c(n1)[C@@](O)(CC)CC2 [Azenosertib] | – | – | 604 nM | 233 nM | 448 nM | > 10000 nM | 900 nM | 239 nM | > 10000 nM
